# Measurements taken from patent US20250340863A1, “POLYPEPTIDE-ENCODED LIBRARY AND SCREENING METHOD USING SAME” (WHOLESOME FUTURE LIMITED, priority 2022, published 2025).
# pIC50: −log10 of the molar value.
# Target: T1, HDAC6 (Homo sapiens, UniProt Q9UBN7)
# T1 construct: made in house; host or cells: E. coli BL21 (DE3), pET-28a plasmid
# T1 sequence (Q9UBN7 1-1215): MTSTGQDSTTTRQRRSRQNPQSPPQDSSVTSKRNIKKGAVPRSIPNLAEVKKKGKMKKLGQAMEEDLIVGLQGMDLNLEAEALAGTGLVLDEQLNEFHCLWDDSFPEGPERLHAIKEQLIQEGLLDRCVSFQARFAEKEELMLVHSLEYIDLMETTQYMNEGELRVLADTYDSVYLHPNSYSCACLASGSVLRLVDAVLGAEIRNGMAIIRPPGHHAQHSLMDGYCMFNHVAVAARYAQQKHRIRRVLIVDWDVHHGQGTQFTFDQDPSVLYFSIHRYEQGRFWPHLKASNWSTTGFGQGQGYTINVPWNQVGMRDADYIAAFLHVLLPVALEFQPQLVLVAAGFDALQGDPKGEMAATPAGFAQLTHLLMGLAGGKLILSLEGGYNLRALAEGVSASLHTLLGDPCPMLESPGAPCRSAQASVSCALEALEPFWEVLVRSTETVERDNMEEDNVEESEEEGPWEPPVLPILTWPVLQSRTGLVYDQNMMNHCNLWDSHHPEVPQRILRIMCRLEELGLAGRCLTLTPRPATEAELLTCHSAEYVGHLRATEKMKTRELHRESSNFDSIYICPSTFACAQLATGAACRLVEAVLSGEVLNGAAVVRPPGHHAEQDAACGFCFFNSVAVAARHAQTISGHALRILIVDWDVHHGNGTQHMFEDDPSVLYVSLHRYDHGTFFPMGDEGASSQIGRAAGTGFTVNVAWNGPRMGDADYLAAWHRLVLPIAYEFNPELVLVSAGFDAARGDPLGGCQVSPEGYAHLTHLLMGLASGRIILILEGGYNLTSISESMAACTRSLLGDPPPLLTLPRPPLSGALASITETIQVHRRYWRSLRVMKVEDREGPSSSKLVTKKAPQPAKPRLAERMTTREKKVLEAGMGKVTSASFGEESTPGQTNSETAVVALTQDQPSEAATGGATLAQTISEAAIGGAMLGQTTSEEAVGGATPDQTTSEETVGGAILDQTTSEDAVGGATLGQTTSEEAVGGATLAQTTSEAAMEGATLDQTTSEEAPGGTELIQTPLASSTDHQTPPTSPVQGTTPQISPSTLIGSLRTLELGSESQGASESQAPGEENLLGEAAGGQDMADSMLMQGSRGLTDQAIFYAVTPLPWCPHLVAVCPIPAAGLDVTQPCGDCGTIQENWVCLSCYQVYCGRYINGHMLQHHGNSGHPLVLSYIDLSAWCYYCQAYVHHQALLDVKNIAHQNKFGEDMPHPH
# Experiment: HDAC6 enzyme inhibition, fluorescence assay
# Assay type: biochemical
# Settings: for pIC50: 7 concentrations, 4-fold dilution from 250 nM, 4 hours substrate incubation at room temperature; for Hill Slope: Hill slope of fitted dose-effect curve (GraphPad Prism); for Emax: top of fitted dose-effect curve of inhibition rate (GraphPad Prism)
# Procedure: The compounds to be tested were balanced to room temperature, and the compounds were diluted 4 times with DMSO in a 384-well plate, with a starting working concentration of 250 nM and a total of 7 concentration gradients. 250 nl of the diluted drug solution was transferred to the 384-well reaction plate using Echo 550, where 250 nl of DMSO was transferred to the control wells Max and Min wells: the HDAC6 enzyme stock solution was diluted to 1.67× with 1× enzyme reaction system buffer solution; the reaction substrate was diluted to 2.5× with 1× enzyme reaction system buffer solution: 15 μl of the above diluted enzyme working solution was added to each reaction well, and 15 μl of 1× enzyme reaction system buffer solution was added to the Min well. Incubate at room temperature for 15 min; add 10 μl of the above-diluted enzyme reaction substrate to each reaction well and incubate at room temperature for 4 hours to allow the reaction to proceed fully; add 3.5×Trypsin reaction stop solution to each reaction well and incubate at 37° C. for 90 min to terminate the reaction; read the fluorescence signal at the end of the reaction on the microplate reader.
# The calculation formula for the inhibition rate of the compound on HDAC6 is as follows:
# Where […] is the mean of the detection values of the sample wells of each Max well (only DMSO and enzyme); […] represents the average value of the detection values of each Min well (without enzyme); Sample Signal is the mean of the detection values of each compound-treated well. The dose-effect curve was fitted using GraphPad Prism software, and the IC50 of the compound on enzyme inhibition was calculated (as shown in Table 5).
SMILES,pIC50,Hill Slope,Emax
O=C(OCC1CCCCC1)c1ccc(COC(=O)C2COC(O)CN2C(=O)C(=O)c2cc3ccccc3[nH]2)nc1 (stereo not drawn) [Compound 1],9.20,1.2,96%
O=C(OCc1ccccn1)C1CCC(COC(=O)C2C[Se]C(O)CN2S(=O)(=O)c2ccccc2)CC1 (stereo not drawn) [Compound 2],9.07,1.1,99%
Cc1ccccc1S(=O)(=O)N1CC(O)CCC1C(=O)OCCc1cnccc1C(=O)OCc1ccncc1 (stereo not drawn) [Compound 4],7.88,1.06,91.4%
Cc1ccc(C(=O)C(=O)N2CC(O)SCC2C(=O)OCc2cc(C(=O)OCc3cccc(Br)c3)ccn2)cc1 (stereo not drawn) [Compound 6],9.12,1.1,100%
O=C(C(=O)N1CC(O)OCC1C(=O)OCCC1CCCCC1C(=O)OCc1ccc(Cl)cc1)c1ccccn1 (stereo not drawn) [Compound 7],9.07,0.9,102%
Cc1ccccc1C(=O)C(=O)N1CC(O)OCC1C(=O)OCc1ccccc1C(=O)OCc1ccccc1Cl (stereo not drawn) [Compound 8],8.54,1.5,101%
Cc1ccc(S(=O)(=O)N2CC(O)CCC2C(=O)OCc2ccc(C(=O)OCc3ccccc3Cl)cn2)cc1 (stereo not drawn) [Compound 9],7.71,0.8205,96.4%
COc1ccc(COC(=O)c2ccc(CCOC(=O)C3C[Se]C(O)CN3C(=O)C(=O)c3ccncc3)nc2)cc1 (stereo not drawn) [Compound 12],9.39,1.1,101%
O=C(OCC1CCCCC1)c1ccnc(CCOC(=O)C2C[Se]C(O)CN2C(=O)C(=O)c2cccc3ccccc23)c1 (stereo not drawn) [Compound 14],6.88,0.8,100%

# More lines, now with the values ahead:
pIC50,Hill Slope,Emax,SMILES
8.82,0.8,98%,Cc1ccc(S(=O)(=O)N2CC(O)CCC2C(=O)OCCc2cccc(C(=O)OCc3ccccc3Cl)c2)cc1 (stereo not drawn) [Compound 10]
9.64,1,100%,O=C(C(=O)N1CC(O)CCC1C(=O)OCCC1CCCCC1C(=O)OCc1cccc(Br)c1)c1cc2ccccc2[nH]1 (stereo not drawn) [Compound 11]
8.66,1.6,98%,O=C(C(=O)N1CC(O)CCC1C(=O)OCCc1ccccc1C(=O)OCCc1ccccc1)c1ccccn1 (stereo not drawn) [Compound 13]
8.22,0.8638,106%,O=C(OCC1CCCCC1)c1ccc(COC(=O)C2CCC(O)CN2C(=O)C(=O)c2cccc3ccccc23)nc1 (stereo not drawn) [Compound 15]
8.41,1,99%,CC(COC(=O)c1cccc(COC(=O)C2COC(O)CN2C(=O)C(=O)C2=Cc3ccccc3C2)c1)c1ccccc1 (stereo not drawn) [Compound 16]
9.24,1.1,102%,COc1cccc(COC(=O)c2cccc(CCOC(=O)C3CCC(O)CN3C(=O)C(=O)C3=Cc4ccccc4C3)c2)c1 (stereo not drawn) [Compound 17]
9.04,1,102%,O=C(OCc1ccncc1)c1ccnc(CCOC(=O)C2CSC(O)CN2C(=O)C(=O)c2ccccn2)c1 (stereo not drawn) [Compound 18]
8.59,1.6,96%,O=C(C(=O)N1CC(O)SCC1C(=O)OCCC1CCCCC1C(=O)OCc1ccccn1)c1cc2ccccc2[nH]1 (stereo not drawn) [Compound 19]
7.27,0.83,99.3%,O=C(OCc1ccccc1Cl)c1ccnc(CCOC(=O)C2CCC(O)CN2C(=O)C(=O)c2ccccn2)c1 (stereo not drawn) [Compound 20]
